Data on two compounds can be found in US20040266863A1, “Use of (11beta,17beta)-11-(1,3-benzodioxol-5-yl)-17-hydroxy-17-(1-propynyl)-estra-4,9-dien-3-one in the treatment of major depressive disorder” (priority 2001, published 2004).

Structures are written as SMILES.

One assay deals with T1, glucocorticoid receptor (Homo sapiens, UniProt P04150).
T1 sequence (P04150 1-777): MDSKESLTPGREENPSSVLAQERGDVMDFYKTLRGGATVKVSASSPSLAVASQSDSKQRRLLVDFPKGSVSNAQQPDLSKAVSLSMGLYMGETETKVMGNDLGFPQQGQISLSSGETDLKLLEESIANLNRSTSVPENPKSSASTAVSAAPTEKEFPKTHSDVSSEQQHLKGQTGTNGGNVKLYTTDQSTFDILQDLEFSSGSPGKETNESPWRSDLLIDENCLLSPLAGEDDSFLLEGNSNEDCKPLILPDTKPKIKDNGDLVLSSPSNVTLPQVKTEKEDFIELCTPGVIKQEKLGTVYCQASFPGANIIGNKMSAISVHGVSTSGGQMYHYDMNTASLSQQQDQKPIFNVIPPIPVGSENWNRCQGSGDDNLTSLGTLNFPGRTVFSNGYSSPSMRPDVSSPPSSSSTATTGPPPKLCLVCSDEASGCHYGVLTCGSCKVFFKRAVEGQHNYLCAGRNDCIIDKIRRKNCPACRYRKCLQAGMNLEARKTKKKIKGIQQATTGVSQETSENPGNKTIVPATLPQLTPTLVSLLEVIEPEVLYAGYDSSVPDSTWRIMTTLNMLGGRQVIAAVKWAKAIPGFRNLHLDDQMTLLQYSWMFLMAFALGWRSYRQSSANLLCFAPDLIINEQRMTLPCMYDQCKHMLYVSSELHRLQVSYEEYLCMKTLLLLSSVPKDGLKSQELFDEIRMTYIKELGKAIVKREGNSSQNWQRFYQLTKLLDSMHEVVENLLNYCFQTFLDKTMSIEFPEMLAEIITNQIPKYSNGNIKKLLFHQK
The assay can be described thus: in vitro binding to the glucocorticoid receptor.

Assay [1] has as its system immature dexamethasone treated male rats. The assay can be described thus: in vivo antiglucocorticoid activity in immature dexamethasone treated male rats (procedure of Kloosterboer et al). The arrangement: species or system rat. To be noted: for threshold dose for demonstrating in vivo antiglucocorticoid effects: rat.
For a further assay, the system named is (healthy) humans. The assay can be described thus: clinical study of antiglucocorticoid activity in healthy humans (cortisol increase, dexamethason antagonism). It is filed as in vivo, human.
Assay [2] concerns depressed patients (Major Depressive Disorder). The assay can be described thus: double blind, 4 week, paroxetine controlled study in patients with Major Depressive Disorder (HAMD-21). Format: in vivo, human. The following applies: for difference on the Hamilton scale versus paroxetine (onset of antidepressant effect): 150 mg treatment group. The method, then:
A double blind, 4 week, paroxetine controlled study of Org 34517 in depressed patients was carried out. Paroxetine is a selective serotonin re-uptake inhibitor which is recognized as an effective antidepressant for major depression.
Patients were randomly allocated to one of three treatment groups. Group I patients (Org 150 group: 50 patients) received 2 capsules with 75 mg of Org 34517 and one placebo (total daily dose 150 mg) for the first 2 weeks and 2 capsules with 75 mg Org 34517 and 1 capsule with 150 mg (total daily dose 300 mg) the next 2 weeks; Group II patients (Org 450 group: 46 patients) received 3 capsules with 150 mg Org 34517 (total daily dose 450 mg) in the first 2 weeks and 4 capsules of Org 34517 (total daily dose 600 mg) in the next 2 weeks; Group III patients (paroxetine group: 44 patients) received 2 capsules with 10 mg paroxetine and one placebo capsule (total daily dose 20 mg) for the first 2 weeks, followed by 2 capsules of 10 mg and one capsule of 20 mg paroxetine (total daily dose 40 mg) in the next 2 weeks. Medication was administered orally in the morning. Efficacy assessment was done on days 4, 7, 10, 14, 21, 28 and 35 by using the 21-item HAMD scale.
Afternoon cortisol plasma levels (ACT=afternoon cortisol test) were measured as described by Halbreich et al (J. Clin. Endocrinol. Metab. 54(6), 1262, 1982).

In assay [3] the test system is patients with psychotic major depression. To be noted: 8-12 mg/kg/day over 4 days (WO 99/17779); cited from earlier work.

With `CC#C[C@]1(O)CC[C@H]2[C@@H]3CCC4=CC(=O)CCC4=C3[C@@H](c3ccc4c(c3)OCO4)C[C@@]21C` [Org 34517, (11β,17β)-11-(1,3-benzodioxol-5-yl)-17-hydroxy-17-(1-propynyl)estra-4,9-dien-3-one], the “potency in in vitro binding to the glucocorticoid receptor, relative to mifepristone” value at glucocorticoid receptor was 52%. For the same compound, the “antiglucocorticoid activity: effect (weight gain) on body weight, adrenals, thymus and spleen” value in assay [1] (orally applied, 10 mg/kg to 40 mg/kg, immature dexamethasone treated male rats) is reported as “proved to increase with the dose”. In addition, the “threshold dose for demonstrating in vivo antiglucocorticoid effects” value in assay [1] is 20 mg/kg. Moreover, the “antiglucocorticoid potency relative to mifepristone, estimated on the amount of dexamethason antagonism” value with (healthy) humans is 17%. The “antiglucocorticoid potency relative to mifepristone, estimated on the basis of the cortisol increase” value with (healthy) humans is 10-25%. In addition, the “difference on the Hamilton scale versus paroxetine (onset of antidepressant effect)” value in assay [2] (all patients, day 10, FIG. 1) is given as ~2 point; in assay [2] (dexamethason non-suppressors, day 10, FIG. 3), ~6 point; in assay [2] (patients with afternoon plasma cortisol higher than 10 μg/dl at start, day 10, FIG. 2) it was ~4 point. In addition, the “onset of antidepressant effect” value in assay [2] (daily dosage not exceeding 300 mg compared with 450 mg or more) is “fast onset of antidepressant effect”.
With `CC#C[C@]1(O)CC[C@H]2[C@@H]3CCC4=CC(=O)CCC4=C3[C@@H](c3ccc(N(C)C)cc3)C[C@@]21C` [mifepristone, 17β-hydroxy-11β-(4-dimethylaminophenyl)-17α-(1-propynyl)estra-4,9-dien-3-one, reference compound], the “threshold dose for demonstrating in vivo antiglucocorticoid effects” value in assay [1] worked out at 5 mg/kg. For the same compound, the “treatment of psychosis associated with psychotic major depression” value in assay [3] is given as “effective”.
